Results reported in US9434701B2, “Aminoquinoxaline derivatives for treatment of neurodegenerative diseases” (CENTRE NATIONAL DE LA RECHERCHE SCIENTIFIQUE (CNRS), priority 2011, dated 2016).
Where two headings read alike, the source gives them in different places.

Experiments:
Type in all cases: cell-based
[1] = test system: dopaminergic neurons (TH+) of rat embryo ventral midbrain culture; test: neuritogenic activity: neurite outgrowth per cell / differentiation of TH+ neurons; details: Rattus norvegicus, Neuron; compound at 100 nM; read-out: Diff in % of control ± SEM
Method: Quinoxaline derivatives were tested on a dopaminergic neuron spontaneous degeneration model in culture according to the protocol described in the article by F. Schmidt et al. […] This model consists of culturing rat embryo ventral midbrain. This part of the brain in culture contains a proportion of dopaminergic neurons of 5% of the total neurons; the other neurons are mainly GABAergic. These cultures are also composed of glial cells, i.e., astrocytes, oligodendrocytes and microglia. These cultures are characterized by progressive neuron death. […] To assess the neuritogenic activity of compounds according to the invention, neurite outgrowth per cell was quantified using the Neurite Outgrowth software developed by Xplora Nova. At least 60 neurons per condition were photographed and studied.

[2] = test system: dopaminergic neurons (TH+) of rat embryo ventral midbrain culture; test: dopaminergic neuron spontaneous degeneration model in culture, TH+ neuron count after 8 days (Schmidt et al. protocol); details: Rattus norvegicus, Neuron, 192 h; compound at 100 nM; 8 days of culture; read-out: TH+ neurons in % of control ± SEM
Method: Quinoxaline derivatives were tested on a dopaminergic neuron spontaneous degeneration model in culture according to the protocol described in the article by F. Schmidt et al. […] This model consists of culturing rat embryo ventral midbrain. This part of the brain in culture contains a proportion of dopaminergic neurons of 5% of the total neurons; the other neurons are mainly GABAergic. These cultures are also composed of glial cells, i.e., astrocytes, oligodendrocytes and microglia. These cultures are characterized by progressive neuron death.

[3] = test system: fetal dopaminergic neurons (TH+) in culture; test: dopaminergic neuron spontaneous degeneration model, second protocol (Mourlevat et al.), TH+ neuron count after 10 days; details: Rattus norvegicus, 240 h, read-out: TH+ neurons in % of control ± Std. Err.
Method: This second protocol is described in the article by Mourlevat, P. P. Michel et al. Molecular Pharmacology 2003, 64:578-586 (“Prevention of Dopaminergic Neuronal Death by Cyclic AMP in Mixed Neuronal/Glial Mesencephalic Cultures Requires the Repression of Presumptive Astrocytes”). […] Compounds according to the invention were evaluated at 50 μM except compound 4bc which was assessed at 100 μM.

[4] = compound at 50 μM, 10 days of culture, one experiment in triplicate

| Compound | activity at 0.1 µM [1] [%] | activity at 0.1 µM [2] [%] | activity at 50 µM [3, 4] [%] | also measured |
| --- | --- | --- | --- | --- |
| CCCCc1cnc2ccc(N)cc2n1 [Compound 4ad] | 118 | 101 | – | – |
| Nc1ccc2ncc(-c3ccccc3)nc2c1 [Compound 4ac] | – | – | – | activity at 50 µM [3]: 189 ± 11% |
| C#CCNc1ccc2nc(C)c(-c3ccc(F)cc3)nc2c1 [Compound 9bm] | – | – | 166 ± 15 | – |
| Cc1nc2ccc(N)c(Br)c2nc1-c1ccccc1 [Compound 7bc] | – | – | 153 ± 12 | – |
| CCCCc1nc2cc(N)ccc2nc1C [Compound 4bd] | 102 | 121 | – | – |
| CCCCCCc1nc2ccc(N)cc2nc1CCCC [Compound 4ed] | 104 | 115 | – | – |
| COc1ccc(-c2nc3cc(N)ccc3nc2-c2ccccc2)cc1 [Compound 4ch] | – | – | 130 ± 10 | – |
| Cc1nc2ccc(N)c(Cl)c2nc1-c1ccccc1 [Compound 8bc] | – | – | 129 ± 8 | – |
| C#CCNc1ccc2nc(C)c(-c3ccccc3)nc2c1 [Compound 9bc] | – | – | 174 ± 15 | – |
